Results as given in patent US11058780B2, “Palpable marker composition” (TECHNICAL UNIVERSITY OF DENMARK, priority 2016, dated 2021).

Test: Solubility in ethanol and doping of iodo-SAIB into SAIB
Format: physicochemical
Details: neat LOIB

In the case of `CC(C)C(=O)OC[C@H]1O[C@@H](O[C@H]2[C@H](OC(=O)C(C)C)[C@@H](OC(=O)C(C)C)C(OC(=O)C(C)C)O[C@@H]2COC(=O)C(C)C)[C@H](OC(=O)C(C)C)[C@@H](OC(=O)C(C)C)[C@H]1OC(=O)C(C)C` (stereo partly drawn) [LOIB, α,β Lactose Octaisobutyrate], the “solubility in anhydrous EtOH” value is reported as “readily dissolves”.
